Experimental data: PMC8067737, “Synthesis and Biological Evaluation of Coumarin-Linked 4-Anilinomethyl-1,2,3-Triazoles as Potent Inhibitors of Carbonic Anhydrases IX and XIII Involved in Tumorigenesis” (Metabolites, 2021)
Like-named read-outs stand apart in the source and are kept apart here.

Columns and labels:
[1] = biological target: hCA I (Homo sapiens, UniProt P00915); test: CA catalyzed CO2 hydration, stopped flow assay, hCA I
Description: (§1) An SX.18V-R Applied Photophysics (Oxford, UK) stopped flow instrument has been used to assay the CA catalyzed CO2 hydration activity [26]. […] The inhibition constants were obtained by non-linear least squares methods using the Cheng-Prusoff equation, as reported earlier, and represent the mean from at least three different determinations.

[2] = biological target: hCA II (Homo sapiens, UniProt P00918); test: CA catalyzed CO2 hydration, stopped flow assay, hCA II
Description: as §1

[3] = biological target: hCA IX (Homo sapiens, UniProt Q16790); test: CA catalyzed CO2 hydration, stopped flow assay, hCA IX; conditions: recombinant enzyme, stopped flow technique, mean from 3 different assays, errors ±5–10%
Description: as §1

[4] = biological target: hCA XIII (Homo sapiens, UniProt Q8N1Q1); test: CA catalyzed CO2 hydration, stopped flow assay, hCA XIII; conditions: Ki (nM) hCA XIII, recombinant enzyme; stopped flow technique; mean from 3 different assays, errors ±5–10%
Sequence of hCA XIII (Q8N1Q1 whole entry): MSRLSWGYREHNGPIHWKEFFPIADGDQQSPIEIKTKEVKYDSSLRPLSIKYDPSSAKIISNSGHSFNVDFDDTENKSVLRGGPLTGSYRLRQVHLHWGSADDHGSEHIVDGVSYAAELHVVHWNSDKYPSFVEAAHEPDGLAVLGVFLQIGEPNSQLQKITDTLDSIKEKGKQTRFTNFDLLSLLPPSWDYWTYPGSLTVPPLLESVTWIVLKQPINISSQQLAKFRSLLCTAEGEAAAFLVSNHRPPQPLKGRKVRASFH
Description: as §1

Sequence of hCA I (P00915 whole entry): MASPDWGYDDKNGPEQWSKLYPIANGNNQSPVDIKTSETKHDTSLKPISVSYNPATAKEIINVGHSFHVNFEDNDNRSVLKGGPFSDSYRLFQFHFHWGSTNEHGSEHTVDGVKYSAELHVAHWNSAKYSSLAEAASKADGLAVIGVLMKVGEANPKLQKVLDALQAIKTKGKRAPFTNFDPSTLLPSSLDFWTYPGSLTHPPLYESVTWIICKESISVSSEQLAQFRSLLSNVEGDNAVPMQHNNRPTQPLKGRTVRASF

melting point [°C] | Ki [1] [nM] | Ki [2] [nM] | Ki ([3]; Ki (nM) hCA IX) [nM] | Ki [4] [nM] | Ki ([3]; read-out: Ki (nM) hCA IX) [nM] | Structure (SMILES)
150 to 152 | > 50000 | > 50000 | 48.4 | 92.6 |  | Cc1ccc(NCc2cn(-c3ccc4oc(=O)ccc4c3)nn2)cc1 [Compound 6a, 6-(4-((p-tolylamino)methyl)-1H-1,2,3-triazol-1-yl)-2H-chromen-2-one]
159 to 161 | > 50000 | > 50000 | 60.8 | 90.1 |  | O=c1ccc2cc(-n3cc(CNc4ccccc4)nn3)ccc2o1 [Compound 6b, 6-(4-((phenylamino)methyl)-1H-1,2,3-triazol-1-yl)-2H-chromen-2-one]
140 to 142 | > 50000 | > 50000 | 73.3 | 950 |  | COc1ccc(NCc2cn(-c3ccc4oc(=O)ccc4c3)nn2)cc1 [Compound 6c, 6-(4-(((4-methoxyphenyl)amino)methyl)-1H-1,2,3-triazol-1-yl)-2H-chromen-2-one]
136 to 138 | > 50000 | > 50000 | 152 | 898 |  | O=c1ccc2cc(-n3cc(CNc4ccc(Cl)cc4)nn3)ccc2o1 [Compound 6d, 6-(4-(((4-chlorophenyl)amino)methyl)-1H-1,2,3-triazol-1-yl)-2H-chromen-2-one]
 | > 50000 | > 50000 | < 50 | 883 | 36.3 | O=c1ccc2cc(-n3cc(CNc4ccc(Br)cc4)nn3)ccc2o1 [Compound 6e, 6-(4-(((4-bromophenyl)amino)methyl)-1H-1,2,3-triazol-1-yl)-2H-chromen-2-one]
152 to 155 | > 50000 | > 50000 | 45 | 8150 |  | CC(C)c1ccc(NCc2cn(-c3ccc4oc(=O)ccc4c3)nn2)cc1 [Compound 6f, 6-(4-(((4-isopropylphenyl)amino)methyl)-1H-1,2,3-triazol-1-yl)-2H-chromen-2-one]
157 to 159 | > 50000 | > 50000 | 64.8 | 903 |  | Cc1cc(C)c(NCc2cn(-c3ccc4oc(=O)ccc4c3)nn2)c(C)c1 [Compound 6g, 6-(4-((mesitylamino)methyl)-1H-1,2,3-triazol-1-yl)-2H-chromen-2-one]
172 to 174 | > 50000 | > 50000 | 73 | 905 |  | O=c1ccc2cc(-n3cc(CNc4ccc(Oc5ccccc5)cc4)nn3)ccc2o1 [Compound 6h, 6-(4-(((4-phenoxyphenyl)amino)methyl)-1H-1,2,3-triazol-1-yl)-2H-chromen-2-one]
230 to 234 | > 50000 | > 50000 | 85.7 | 896 |  | O=c1ccc2cc(-n3cc(CNc4cccc([N+](=O)[O-])c4)nn3)ccc2o1 [Compound 6i, 6-(4-(((3-nitrophenyl)amino)methyl)-1H-1,2,3-triazol-1-yl)-2H-chromen-2-one]
133 to 136 | > 50000 | > 50000 | 305 | 91.8 |  | O=c1ccc2cc(-n3cc(CNc4cccc(Br)c4)nn3)ccc2o1 [Compound 6j, 6-(4-(((3-bromophenyl)amino)methyl)-1H-1,2,3-triazol-1-yl)-2H-chromen-2-one]
246 to 248 | > 50000 | > 50000 | 69.1 | 6430 |  | O=c1ccc2cc(-n3cc(CNc4cccc(C(F)(F)F)c4)nn3)ccc2o1 [Compound 6k]
210 to 212 | > 50000 | > 50000 | 86.1 | 840 |  | O=c1ccc2cc(-n3cc(CNc4ccc(F)cc4)nn3)ccc2o1 [Compound 6l, 6-(4-(((4-fluorophenyl)amino)methyl)-1H-1,2,3-triazol-1-yl)-2H-chromen-2-one]
220 to 223 | > 50000 | > 50000 | 80.1 | 795 |  | Cc1cccc(NCc2cn(-c3ccc4oc(=O)ccc4c3)nn2)c1 [Compound 6m, 6-(4-((m-tolylamino)methyl)-1H-1,2,3-triazol-1-yl)-2H-chromen-2-one]
191 to 194 | > 50000 | > 50000 | 89.3 | 703 |  | Cc1cc(C)cc(NCc2cn(-c3ccc4oc(=O)ccc4c3)nn2)c1 [Compound 6n, 6-(4-(((3,5-dimethylphenyl)amino)methyl)-1H-1,2,3-triazol-1-yl)-2H-chromen-2-one]
134 to 137 | > 50000 | > 50000 | 92.7 | 95.4 |  | O=c1ccc2cc(-n3cc(CNc4cccc(Cl)c4)nn3)ccc2o1 [Compound 6o, 6-(4-(((3-chlorophenyl)amino)methyl)-1H-1,2,3-triazol-1-yl)-2H-chromen-2-one]
165 to 167 | > 50000 | > 50000 | 574 | 594 |  | O=c1ccc2cc(-n3cc(CNc4ccccc4I)nn3)ccc2o1 [Compound 6p, 6-(4-(((2-iodophenyl)amino)methyl)-1H-1,2,3-triazol-1-yl)-2H-chromen-2-one]
213 to 215 | > 50000 | > 50000 | 96.4 | 96.7 |  | O=c1ccc2cc(-n3cc(CNc4ccc(Cl)cc4[N+](=O)[O-])nn3)ccc2o1 [Compound 6q, 6-(4-(((4-chloro-2-nitrophenyl)amino)methyl)-1H-1,2,3-triazol-1-yl)-2H-chromen-2-one]
220 to 222 | > 50000 | > 50000 | 462 | 550 |  | Cc1cccc(NCc2cn(-c3ccc4oc(=O)ccc4c3)nn2)c1C [Compound 6r, 6-(4-(((2,3-dimethylphenyl)amino)methyl)-1H-1,2,3-triazol-1-yl)-2H-chromen-2-one]
204 to 206 | > 50000 | > 50000 | 90.9 | 664 |  | O=c1ccc2cc(-n3cc(CNc4cc(F)cc(F)c4)nn3)ccc2o1 [Compound 6s, 6-(4-(((3,5-difluorophenyl)amino)methyl)-1H-1,2,3-triazol-1-yl)-2H-chromen-2-one]
230 to 232 | > 50000 | > 50000 | 643 | 6030 |  | O=c1ccc2cc(-n3cc(CNc4ccccc4F)nn3)ccc2o1 [Compound 6t, 6-(4-(((2-fluorophenyl)amino)methyl)-1H-1,2,3-triazol-1-yl)-2H-chromen-2-one]
